Source: article PMC10916352, “Safety Evaluation of a Prototypical Diazirine-Based Covalent Crosslinker and Molecular Adhesive” (International Journal of Toxicology, 2023)
Structures can show the parent of a compound that is named as a salt.

What was measured:
[1] = test system: Balb/c 3T3 fibroblasts (clone 31); assay: 3T3 Neutral Red uptake cytotoxicity and phototoxicity assay; details: for Corrected Mean OD540: 8 wells; for Photo Irritation Factor (PIF): non-irradiated IC50 divided by irradiated IC50
Procedure: (§1) The 3T3 Neutral Red uptake assay was used to evaluate the phototoxicity of BondLynx. The NRU assay makes use of Neutral Red dye, a weak cationic dye that penetrates the cell membrane by non-ionic passive diffusion and accumulates in lysosomes. Cytotoxicity of the test material is evaluated by measuring the OD540 to assess the uptake of Neutral Red dye.[28],[29] […] By measuring cytotoxicity in the absence vs presence of UV and visible light, the phototoxicity of the test material can be determined.[30],[31]
(§2) Cells were routinely trypsinized and passaged, at least once weekly, with a split ratio 1:3 to 1:4 to achieve a near confluent culture.
(§3) Stock solutions of both controls were freshly prepared on the day of testing. The vehicle control was 1% DMSO in EBSS for the positive control, EBSS for the negative control, and .5% ethanol in EBSS for BondLynx. BondLynx was dissolved in ethanol for testing. […] All controls and BondLynx were handled in the dark and tested in 8-fold.
(§4) In preparation for testing, cultures of 3T3 fibroblasts were trypsinized and resuspended in culture medium. […] A total of six plates were prepared in this manner – two each for the positive control, the negative control, and BondLynx. Following incubation, the cell culture medium was removed, and the wells washed with DPBS (Dulbecco’s phosphate-buffered saline). A 200 μL aliquot of each dilution of the test compound (BondLynx or a control) was added the first eight columns, and the appropriate vehicle control was added to the last four columns. All plates were incubated an additional 60 min before irradiating one plate for each test compound (+Irr) in a solar simulator with a WG320 nm filter for 22 min (equivalent to 5 J/cm^2 UV-A), while the second plate for each test compound (–Irr) was kept in the dark at room temperature. Subsequently, the test solutions were removed from the plates, and the cells were washed once with DPBS and suspended in 200 μL of supplemented DMEM to incubate for an additional 20-24 h.
(§5) Immediately following incubation, the confluency of each plate was visually assessed, and the culture medium was replaced with 100 μL of Neutral Red dye (50 μg/mL). The plates were incubated another 3.5 h before removing the dye, washing with 150 μL of DPBS, and shaking for 20-40 min in 150 μL Neutral Red destain solution (ethanol:acetic acid:distilled water, 50:1:49). The optical density at 540 nm was measured for each well and corrected by subtracting the appropriate blank.

[2] = test system: EPISKIN Small Model (human epidermis model); assay: In vitro skin irritation test, MTT viability; format: cell-based; details: 15 min exposure, 42 h post-incubation
Procedure: Tests were performed in triplicate. […] Following exposure, samples were rinsed with phosphate buffered saline until no test item remain, dried carefully, and placed in a new 2 mL well with pre-warmed Maintenance Medium to incubate for 42 h. After incubation, cell culture inserts were dried carefully, transferred into a 12-well plate prefilled with 2 mL MTT in phosphate buffered saline (.3 mg/mL), and incubated for 3 h. Tissue samples were then dried, and a biopsy punch was taken. The epidermis was separated from the collagen matrix, and both were extracted with 500 μL isopropanol and stored for 70 h refrigerated. The amount of extracted formazan was measured in duplicate for each sample by the OD570.

[3] = test system: Salmonella typhimurium TA98; assay: Bacterial reverse mutation test (Ames), strain TA98; format: cell-based; details: positive control tested singular
Procedure: (§6) The reverse mutation test was performed to determine the potential of BondLynx and/or its metabolites to induce reverse mutations at the histidine locus of Salmonella typhimurium.[26],[27] The test employs strains of Salmonella typhimurium carrying mutations in the genes involved in histidine production, such that they are only able to grow in histidine supplemented culture media. Upon exposure to mutagenic materials, these mutations may be reversed, thereby restoring the ability to grow in histidine-free media. When grown in the presence of the test compound on media with a small amount of histidine, tester strains grow briefly to allow the opportunity for mutation, followed by proliferation of revertant colonies upon depletion of the provided histidine. Thus, the number of revertant colonies following incubation is indicative of the ability of the test compound to induce mutations.
(§7) Tests were performed on two strains of the bacteria (TA98 and TA100) in the absence and presence of an exogenous mammalian metabolic activation system (5% v/v S9). Positive controls and BondLynx were suspended in dimethyl sulfoxide (DMSO) for testing, and DMSO served as the vehicle control. Positive controls consisted of 2-nitrofluorene (10 μg/plate) for the TA98 strain without S9, methyl mesylate (650 μg/plate) for the TA100 strain without S9, and 2-aminoanthracene for both strains with S9 (1 μg/plate for TA98 and 5 μg/plate for TA100). Eight concentrations of BondLynx (1.7, 5.4, 17, 52, 164, 512, 1600 and 5000 μg/plate) were tested in triplicate. The vehicle control was tested in triplicate and the positive controls were tested singular.
(§8) Test solutions were prepared by pre-incubating .1 mL fresh bacterial culture (10^9 cells/mL), .1 mL of a BondLynx dilution or control solution, and .5 mL of S9 mix or .1 M phosphate buffer for 30 min before adding to 3 mL of molten (45 ± 2°C) top agar. After mixing in a vortex, agar solutions were poured onto selective agar plates. Upon solidification, the prepared plates were inverted and incubated at 37.0 ± 1.0°C for 48 ± 4 h. Following incubation, revertant colonies were counted with a Sorcerer Colony Counter. The condition of the bacterial background lawn was evaluated macroscopically and/or microscopically using a dissecting microscope when considered necessary.

[4] = test system: Salmonella typhimurium TA100; assay: Bacterial reverse mutation test (Ames), strain TA100; format: cell-based; details: positive control tested singular
Procedure: as §6, §7, §8

[5] = 3T3 Neutral Red uptake cytotoxicity and phototoxicity assay; details: mouse, Viability (%)
Procedure: as §1, §2, §3, §4, §5

## CCCCCCCCCCCCOS(=O)(=O)[O-].[Na+] [SDS, sodium dodecyl sulphate]
[1]; +Irr, 0.1 μg/mL
  Viability (%): 100.0%
  Corrected Mean OD540: 1.17
[1]; +Irr, 0.316 μg/mL
  Viability (%): 99.1%
  Corrected Mean OD540: 1.16
[1]; +Irr, 1 μg/mL
  Viability (%): 101.7%
  Corrected Mean OD540: 1.19
[1]; +Irr, 3.16 μg/mL
  Viability (%): 100.0%
  Corrected Mean OD540: 1.17
[1]; +Irr, 10 μg/mL
  Viability (%): 95.7%
  Corrected Mean OD540: 1.12
[1]; +Irr, 31.6 μg/mL
  Viability (%): 18.8%
  Corrected Mean OD540: 0.22
[1]; +Irr, 100 μg/mL
  Viability (%): 0.6%
  Corrected Mean OD540: 0.007
[1]; +Irr, 316 μg/mL
  Viability (%): 0.5%
  Corrected Mean OD540: 0.006
[1]; +Irr, 5 J/cm^2 UV-A
  IC50 (50% inhibition of Neutral Red uptake), presence of irradiation: 21.65 µg/mL
[1]
  Photo Irritation Factor (PIF): 1.14
[1]; –Irr
  IC50 (50% inhibition of Neutral Red uptake), absence of irradiation: 27.4 µg/mL
[1]; –Irr, 0.1 μg/mL
  Viability (%): 102.0%
  Corrected Mean OD540: 1.25
[1]; –Irr, 0.316 μg/mL
  Viability (%): 99.6%
  Corrected Mean OD540: 1.22
[1]; –Irr, 1 μg/mL
  Viability (%): 101.2%
  Corrected Mean OD540: 1.24
[1]; –Irr, 3.16 μg/mL
  Viability (%): 101.2%
  Corrected Mean OD540: 1.24
[1]; –Irr, 10 μg/mL
  Viability (%): 98.8%
  Corrected Mean OD540: 1.21
[1]; –Irr, 31.6 μg/mL
  Viability (%): 26.1%
  Corrected Mean OD540: 0.32
[1]; –Irr, 100 μg/mL
  Viability (%): 0.2%
  Corrected Mean OD540: 0.003
[1]; –Irr, 316 μg/mL
  Viability (%): 0.04%
  Corrected Mean OD540: 0.0005
[2]
  Mean ± SD (OD570 corrected): .039 ± .005
[2]; relative to phosphate buffered saline
  Cell Viability (%): 4.0%

## O=[N+]([O-])c1ccc2c(c1)Cc1ccccc1-2 [2-nitrofluorene, reference compound]
[3]; TA98, without S9, 10 μg/plate
  Revertant Colonies (Without S9): 1962

## COS(C)(=O)=O [Methyl mesylate, methyl mesylate, reference compound]
[4]; TA100, without S9, 650 μg/plate
  Revertant Colonies (Without S9): 646

## Nc1ccc2cc3ccccc3cc2c1 [2-aminoanthracene, reference compound]
[3]; TA98, with S9, 1 μg/plate
  Revertant Colonies (With S9): 657
[4]; TA100, with S9, 5 μg/plate
  Revertant Colonies (With S9): 363

## c1ccc2cc3ccccc3cc2c1 [anthracene]
[1]; +Irr, 0.01 μg/mL
  Corrected Mean OD540: 1.09
[1]; +Irr, 0.0316 μg/mL
  Corrected Mean OD540: 0.67
[1]; +Irr, 0.1 μg/mL
  Corrected Mean OD540: 0.043
[1]; +Irr, 0.316 μg/mL
  Corrected Mean OD540: 0.046
[1]; +Irr, 1 μg/mL
  Corrected Mean OD540: 0.047
[1]; +Irr, 3.16 μg/mL
  Corrected Mean OD540: 0.047
[1]; +Irr, 10 μg/mL
  Corrected Mean OD540: 0.037
[1]; +Irr, 31.6 μg/mL
  Corrected Mean OD540: 0.089
[1]; Mus musculus, BALB/c3T3, light or radiation study, read-out: IC50 (50% inhibition of Neutral Red uptake), presence of irradiation
  IC50: 0.03 µg/mL
[1]
  Photo Irritation Factor (PIF): > 31.6
[1]; –Irr
  IC50 (50% inhibition of Neutral Red uptake), absence of irradiation: no IC50
[1]; –Irr, 0.01 μg/mL
  Corrected Mean OD540: 1.15
[1]; –Irr, 0.0316 μg/mL
  Corrected Mean OD540: 1.14
[1]; –Irr, 0.1 μg/mL
  Corrected Mean OD540: 1.14
[1]; –Irr, 0.316 μg/mL
  Corrected Mean OD540: 1.13
[1]; –Irr, 1 μg/mL
  Corrected Mean OD540: 1.12
[1]; –Irr, 3.16 μg/mL
  Corrected Mean OD540: 1.13
[1]; –Irr, 10 μg/mL
  Corrected Mean OD540: 1.13
[1]; –Irr, 31.6 μg/mL
  Corrected Mean OD540: 1.15
[5]; +Irr
  viability at 82 min, 0.01 μg/mL: 98.1%
  viability at 82 min, 0.0316 μg/mL: 60.3%
  viability at 82 min, 0.1 μg/mL: 3.9%
  viability at 82 min, 0.316 μg/mL: 4.1%
  viability at 82 min, 1 μg/mL: 4.2%
  viability at 82 min, 3.16 μg/mL: 4.2%
  viability at 82 min, 10 μg/mL: 3.3%
  viability at 82 min, 31.6 μg/mL: 8.01%
[5]; –Irr
  viability at 82 min, 0.01 μg/mL: 103%
  viability at 82 min, 0.0316 μg/mL: 102%
  viability at 82 min, 0.1 μg/mL: 102%
  viability at 82 min, 0.316 μg/mL: 101%
  viability at 82 min, 1 μg/mL: 100%
  viability at 82 min, 3.16 μg/mL: 101%
  viability at 82 min, 10 μg/mL: 101%
  viability at 82 min, 31.6 μg/mL: 103%
